Literature values in patent publication US20090197815A1, “COMBINATION OF SOMATOSTATIN-ANALOGS WITH DOPAMINE- OR GROWTH HORMONE RECEPTOR ANTAGONIST” (priority 2006, published 2009).
Like-named read-outs stand apart in the source and are kept apart here.

Columns and labels:
patients with acromegaly [1] = system: patients with acromegaly
acromegalic patients [2] = conditions: cabergoline 1-3.5 mg/week added to depot SSA at maximum registered dose, 19 patients
patients with acromegaly [3] = conditions: daily subcutaneous monotherapy
acromegalic patients [4] = system: acromegalic patients

In the case of `C[C@@H](O)[C@@H]1NC(=O)[C@H](CCCCN)NC(=O)[C@@H](Cc2c[nH]c3ccccc23)NC(=O)[C@H](Cc2ccccc2)NC(=O)[C@@H](NC(=O)[C@H](N)Cc2ccccc2)CSSC[C@@H](C(=O)N[C@H](CO)[C@@H](C)O)NC1=O` [Sandostatin®, octreotide acetate], the “normalization of IGF-I” value (patients with acromegaly [1]) is given as “approximately 60 % of cases”, the “patients with GH levels decreasing to <2.0 μg/L” value (patients with acromegaly [1]) is given as 40 % of patients and the “patients with GH levels decreasing to <5.0 μg/L” value (patients with acromegaly [1]) is given as 65 % of patients.
In the case of `C=CCN1C[C@H](C(=O)N(CCCN(C)C)C(=O)NCC)C[C@@H]2c3cccc4[nH]cc(c34)C[C@H]21` [cabergoline], the “normalization of IGF1” value (acromegalic patients [2]) is given as 42 % patients, the “normalized both biochemical markers (GH<2.5 μg/L and IGF1 for age)” value (acromegalic patients [2]) is given as 16 % of patients and the “reduction of GH<2.5 μg/L” value (acromegalic patients [2]) is given as 21 % of patients.
In the case of pegvisomant, the “change of GH concentrations during therapy” value (patients with acromegaly [3]) is listed as “increased by nearly twofold”, the “normalization of circulating IGF-I levels” value (patients with acromegaly [3]) is listed as 80 to 90 % of patients and the tolerability (patients with acromegaly [3]) is listed as “good tolerability”. The IGF-I concentration normal (acromegalic patients [4]; after 18 weeks, at least 50 mg pegvisomant per week, with monthly 30 mg Sandostatin LAR or 120 mg lanreotide Autogel) was 81 % of patients, the IGF-I concentration normal (acromegalic patients [4]; at week 42, weekly pegvisomant with monthly 30 mg Sandostatin LAR or 120 mg lanreotide Autogel) was 95 % of patients and the “median weekly dose needed to return IGF-I concentration to normal” value (acromegalic patients [4]; combined with monthly long-acting SSA, range 40-80 mg) was 60 mg. The “patients with mild non-progressive increases in liver transaminases” value (acromegalic patients [4]; from week 12, independent from pegvisomant dose, 10 patients, combined with long-acting SSA) was 38%.
